Read-outs that look alike come from different tables or passages of the source.
Experiments:
[1] = cited from earlier work
[2] = cited from earlier work; remark: listed apart in the source
[3] = administered orally; cited from earlier work
[4] = cited from earlier work; remark: listed apart in the source
[5] = cited from earlier work; remark: listed apart in the source
[6] = system: Rhesus monkeys; details: cited from earlier work
[7] = in vivo
Description: It is necessary to combine both the oral dose and the pharmacokinetics data to estimate the target flux of ketorolac. For an oral dosage regimen of ketorolac tromethamine, it is recommended that 10 mg be given every 6 hours as needed for short-term management of moderate to severe pain.

[8] = cited from earlier work; for Solubilities: saturated
[9] = cited from earlier work; remark: listed apart in the source
[10] = oral doses; cited from earlier work
[11] = system: patients with coronary heart disease; details: single oral dose of 2 mg; cited from earlier work
[12] = system: rats; details: rat, not told; cited from earlier work
[13] = in vitro skin flux of ketorolac; details: Table 5
Description: Generally, the protocol was as follows.
Human cadaver epidermis was removed carefully from dermatoned full thickness skin after the skin had been heated in deionized water at 60° C. for one to two minutes. The stripped epidermis was placed between two polyethylene plastic sheets and refrigerated at -20° C. until use. Discs of the epidermis having a diameter of 5/8" were punched out with a die and tested for leakage by soaking the epidermis in water, then spreading it flat on a plastic sheet, and pressing the top of the epidermis lightly a few times with a piece of laboratory tissue. Leakage of the epidermis was detected by appearance of wet spots on the tissue.
Epidermis discs proving to be free of leaks were placed on top of a receiver cell of a modified Franz vertical diffusion cell assembly, and a donor cell was placed on top of the receiver cell. A small magnetic stir bar was inserted through the sampling port into the donor cell compartment. The diffusion cell assemblies were clamped together and transferred to a skin permeation room (controlled at 32° C.) The receiver cell compartments were filled with 8.0 ml of isotonic phosphate buffer, pH 7.0. […]
The quantity of ketorolac tromethamine in each sample was assayed by HPLC analytical methods.

[14] = system: coronary strips; details: vasodilation; cited from earlier work

For `O=C(c1ccccc1)c1ccc2n1CCC2C(=O)O` (centres unmarked) [Ketorolac tromethamine], the Solubilities ([1]; PG (50%), Oleic acid (50%)) is listed as 110 mg/mL, the Solubilities ([1]; propylene glycol (PG)) is listed as 200 mg/mL and the Solubilities ([1]; water) is listed as 725 mg/mL. For the same compound, the “analgesic potency relative to aspirin” value ([2]; administered orally) was “about 180 times”, the “analgesic potency relative to indomethacin” value ([2]; administered orally) was 3-6 times and the “analgesic potency relative to naproxen” value ([2]; administered orally) was 25-50 times. For the same compound, the “anti-inflammatory potency relative to indomethacin or naproxen” value [3] was 2-3 times, the volume of distribution ([4]; in vivo) was 7.7 lit/70 kg and the oral bioavailability ([4]; oral) was 80-100%. For the same compound, the shelf-life ([5]; aqueous solutions pH 4-8, 25° C.) was “very long shelf-life”, the “aqueous solubility relative to ketorolac” value [5] was “greater aqueous solubility than ketorolac” and the light sensitivity ([5]; decarboxylation, especially in the presence of oxygen) was “light sensitive”. The “stability in aqueous solutions” value ([5]; pH 4-8) was “extremely stable” and the “estimated in vivo skin flux” value ([6]; rhesus monkey) was “very high”.
For `O=C(c1ccccc1)c1ccc2n1CCC2C(=O)O` (centres unmarked) [Ketorolac], the “amount to be delivered during a 24 hour period” value [7] is listed as 12.5 to 19.2 mg, the total clearance ([4]; in vivo) is listed as 1750 ml/hr/70 kg and the “plasma concentration at 6 hour” value ([4]; oral administration of 10 mg, 6 hour) is listed as 200 to 300 ng/mL. For the same compound, the Cmax ([4]; oral administration of 10 mg) was “about 0.8 μg/ml”, the “time to high Cmax” value ([6]; percutaneous, solution formulations) was ≤ 8 h and the “enhancement of percutaneous absorption by propylene glycol and linoleic acid, or propylene glycol and oleic acid” value ([6]; solution formulations) was “effective”.
For `O=C(c1ccccc1)c1ccc2n1CC[C@@H]2C(=O)O` [(-)-S isomer], the “analgesic potency relative to (+)-R isomer” value ([2]; A. Guzman et al., 1986) is listed as “many times greater analgesic potency”.
In the case of `CCOC(=O)[N-]c1cn(N2CCOCC2)n[o+]1` [Molsidomine, N-5-ethoxycarbonyl-3-morpholinosydnonimine], the solubility ([8]; CHCl3) is given as “freely soluble”, the Solubilities ([8]; Glycerin, 25° C.) is given as 1.80% and the Solubilities ([8]; Glycol salicylate, 25° C.) is given as 15.1%. The Solubilities ([8]; Isopropyl myristate, 25° C.) was 0.09%, the Solubilities ([8]; Octyl.decyl oil, 25° C.) was 0.36% and the Solubilities ([8]; Oleic Acid, 25° C.) was 1.37%. For the same compound, the Solubilities ([8]; PEG 400, 25° C.) was 5.23%, the Solubilities ([8]; Propylene glycol, 25° C.) was 6.37% and the solubility ([8]; dilute HCl, ethanol, ethyl acetate, methanol) was “soluble”. For the same compound, the solubility ([8]; ether, petroleum ether) was “very slightly soluble”, the solubility ([8]; propylene glycol and a variety of organic solvents) was “soluble” and the solubility ([8]; water, acetone, benzene) was “sparingly soluble”. The pKa ([9]; 25° C.) was 3.34, the t90 ([9]; pH 5-7, 20° C.) was 2.6 years and the bioavailability [10] was 44%. For the same compound, the “duration of anti-anginal effects” value [11] was 3 to 5 h and the estimated flux [12] was ~399 μg/hr-cm^2.
With `CC(O)CO` (centres unmarked) [PG, propylene glycol] the “Effect on skin flux (factorial design)” value [13] was 8.72.
In the case of `O=[N+]([O-])OCC(CO[N+](=O)[O-])O[N+](=O)[O-]` [nitroglycerin], the “dependence of activity on cysteine” value [14] is listed as “depends on the presence of cysteine”.
For `N#CCN(N=O)N1CCOCC1` [SIN-1A], the “dependence of activity on cysteine” value [14] is given as “active in both the presence and the absence of cysteine”.

— patent publication US5962013A, “Monolithic matrix transdermal delivery system for administering molsidomine” (priority 1998, dated 1999)
